Where two headings read alike, the source gives them in different places.
Assays:
Assay in all cases: KiNativ, MOLM13 live cells
Type in all cases: cell-based
BTK = BTK (Homo sapiens, UniProt Q06187); conditions: 100 nM, 2 hours; Activation Loop
Description: (§1) Samples were analyzed by KiNativ in situ kinase profiling by ActivX Biosciences.

MAP2K5 = MAP2K5 (Homo sapiens, UniProt Q13163); conditions: MOLM-13; 100 nM, 2 hours; Lys2; read-out: Inhibition vs DMSO
Description: as §1

PAK2 = PAK2 (Homo sapiens, UniProt Q13177); conditions: MOLM-13, 2 h, 100 nM
Sequence of PAK2 (Q13177 whole entry): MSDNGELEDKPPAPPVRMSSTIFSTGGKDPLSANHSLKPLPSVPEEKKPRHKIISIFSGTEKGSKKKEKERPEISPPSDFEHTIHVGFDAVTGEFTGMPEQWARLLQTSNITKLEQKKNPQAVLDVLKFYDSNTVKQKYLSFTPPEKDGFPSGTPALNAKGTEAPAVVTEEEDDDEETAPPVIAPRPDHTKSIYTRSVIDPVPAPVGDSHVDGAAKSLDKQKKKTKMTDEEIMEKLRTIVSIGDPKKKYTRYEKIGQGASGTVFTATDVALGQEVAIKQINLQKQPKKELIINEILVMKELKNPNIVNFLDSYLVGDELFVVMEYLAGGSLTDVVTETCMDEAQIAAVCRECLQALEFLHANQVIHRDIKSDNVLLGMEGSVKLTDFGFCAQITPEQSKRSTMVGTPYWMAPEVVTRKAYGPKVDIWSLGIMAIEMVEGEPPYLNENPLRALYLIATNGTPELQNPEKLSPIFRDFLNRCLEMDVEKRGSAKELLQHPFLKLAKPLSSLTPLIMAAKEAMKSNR
Description: as §1

MSK2 domain1 = biological target: T1, MSK2 domain1 (Homo sapiens, UniProt O75676); conditions: MOLM-13, 2 h, 100 nM
T1 construct: MSK2 domain1
T1 sequence (O75676 whole entry, the tested form may be a part): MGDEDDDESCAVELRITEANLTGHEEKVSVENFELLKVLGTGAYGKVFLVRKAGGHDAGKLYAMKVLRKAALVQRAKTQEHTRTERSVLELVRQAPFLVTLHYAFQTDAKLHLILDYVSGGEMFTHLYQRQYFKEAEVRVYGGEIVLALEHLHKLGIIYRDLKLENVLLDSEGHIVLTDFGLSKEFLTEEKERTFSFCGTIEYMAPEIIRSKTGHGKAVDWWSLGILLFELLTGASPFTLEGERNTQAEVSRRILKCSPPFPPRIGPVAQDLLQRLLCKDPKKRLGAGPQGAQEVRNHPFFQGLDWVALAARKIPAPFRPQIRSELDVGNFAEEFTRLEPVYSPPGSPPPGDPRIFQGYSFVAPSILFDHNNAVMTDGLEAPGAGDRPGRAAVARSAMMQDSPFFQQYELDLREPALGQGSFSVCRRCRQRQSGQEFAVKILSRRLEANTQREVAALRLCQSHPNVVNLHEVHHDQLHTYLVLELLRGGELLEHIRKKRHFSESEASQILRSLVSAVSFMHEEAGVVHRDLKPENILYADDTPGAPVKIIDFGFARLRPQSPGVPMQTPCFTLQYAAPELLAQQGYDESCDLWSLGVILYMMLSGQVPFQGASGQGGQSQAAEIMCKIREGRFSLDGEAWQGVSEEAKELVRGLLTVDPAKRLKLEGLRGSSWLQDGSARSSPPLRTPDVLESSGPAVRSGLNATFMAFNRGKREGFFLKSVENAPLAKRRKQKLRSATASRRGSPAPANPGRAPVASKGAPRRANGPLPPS
Description: as §1

PIP4K2C = biological target: T2, PIP4K2C (Homo sapiens, UniProt Q8TBX8); conditions: MOLM-13, 2 h, 100 nM, ATP, read-out: Inhibition vs DMSO
T2 sequence (Q8TBX8 1-421): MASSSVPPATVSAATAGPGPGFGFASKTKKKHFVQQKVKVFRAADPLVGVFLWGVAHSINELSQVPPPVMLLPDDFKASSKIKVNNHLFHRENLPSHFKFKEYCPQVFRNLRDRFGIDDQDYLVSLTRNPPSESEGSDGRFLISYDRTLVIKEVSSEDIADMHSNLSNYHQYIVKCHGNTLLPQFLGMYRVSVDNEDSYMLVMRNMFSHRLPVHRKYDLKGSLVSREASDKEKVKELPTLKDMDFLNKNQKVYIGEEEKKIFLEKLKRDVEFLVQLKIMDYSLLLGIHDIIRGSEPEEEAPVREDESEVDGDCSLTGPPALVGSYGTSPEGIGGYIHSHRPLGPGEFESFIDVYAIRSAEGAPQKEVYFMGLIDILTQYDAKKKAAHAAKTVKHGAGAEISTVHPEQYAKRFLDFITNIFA
Description: as §1

ARAF = ARAF (Homo sapiens, UniProt P10398); conditions: MOLM-13; 100 nM, 2 hours; Lys2; read-out: Inhibition vs DMSO
Description: as §1

CDC2 = CDC2 (Homo sapiens, UniProt P06493); conditions: MOLM-13, 2 h, 100 nM
Sequence of CDC2 (P06493 whole entry): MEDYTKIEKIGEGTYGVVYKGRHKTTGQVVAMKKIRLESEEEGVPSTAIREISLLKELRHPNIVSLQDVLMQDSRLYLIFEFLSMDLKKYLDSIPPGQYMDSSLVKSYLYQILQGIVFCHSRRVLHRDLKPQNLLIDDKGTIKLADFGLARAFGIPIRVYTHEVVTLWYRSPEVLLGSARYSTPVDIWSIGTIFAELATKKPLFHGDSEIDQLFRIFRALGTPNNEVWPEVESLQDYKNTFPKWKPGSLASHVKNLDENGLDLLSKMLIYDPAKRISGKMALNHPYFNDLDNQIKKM
Description: as §1

p38b = p38b (Homo sapiens, UniProt Q15759); conditions: MOLM-13; 100 nM, 2 hours; Other; read-out: Inhibition vs DMSO
Description: as §1

GSK3B = GSK3B (Homo sapiens, UniProt P49841); conditions: MOLM-13; 100 nM, 2 hours; Lys2; read-out: Inhibition vs DMSO
Description: as §1

LATS1 = biological target: T3, LATS1 (Homo sapiens, UniProt O95835); conditions: MOLM-13, 2 h, 100 nM
T3 sequence (O95835 1-1130): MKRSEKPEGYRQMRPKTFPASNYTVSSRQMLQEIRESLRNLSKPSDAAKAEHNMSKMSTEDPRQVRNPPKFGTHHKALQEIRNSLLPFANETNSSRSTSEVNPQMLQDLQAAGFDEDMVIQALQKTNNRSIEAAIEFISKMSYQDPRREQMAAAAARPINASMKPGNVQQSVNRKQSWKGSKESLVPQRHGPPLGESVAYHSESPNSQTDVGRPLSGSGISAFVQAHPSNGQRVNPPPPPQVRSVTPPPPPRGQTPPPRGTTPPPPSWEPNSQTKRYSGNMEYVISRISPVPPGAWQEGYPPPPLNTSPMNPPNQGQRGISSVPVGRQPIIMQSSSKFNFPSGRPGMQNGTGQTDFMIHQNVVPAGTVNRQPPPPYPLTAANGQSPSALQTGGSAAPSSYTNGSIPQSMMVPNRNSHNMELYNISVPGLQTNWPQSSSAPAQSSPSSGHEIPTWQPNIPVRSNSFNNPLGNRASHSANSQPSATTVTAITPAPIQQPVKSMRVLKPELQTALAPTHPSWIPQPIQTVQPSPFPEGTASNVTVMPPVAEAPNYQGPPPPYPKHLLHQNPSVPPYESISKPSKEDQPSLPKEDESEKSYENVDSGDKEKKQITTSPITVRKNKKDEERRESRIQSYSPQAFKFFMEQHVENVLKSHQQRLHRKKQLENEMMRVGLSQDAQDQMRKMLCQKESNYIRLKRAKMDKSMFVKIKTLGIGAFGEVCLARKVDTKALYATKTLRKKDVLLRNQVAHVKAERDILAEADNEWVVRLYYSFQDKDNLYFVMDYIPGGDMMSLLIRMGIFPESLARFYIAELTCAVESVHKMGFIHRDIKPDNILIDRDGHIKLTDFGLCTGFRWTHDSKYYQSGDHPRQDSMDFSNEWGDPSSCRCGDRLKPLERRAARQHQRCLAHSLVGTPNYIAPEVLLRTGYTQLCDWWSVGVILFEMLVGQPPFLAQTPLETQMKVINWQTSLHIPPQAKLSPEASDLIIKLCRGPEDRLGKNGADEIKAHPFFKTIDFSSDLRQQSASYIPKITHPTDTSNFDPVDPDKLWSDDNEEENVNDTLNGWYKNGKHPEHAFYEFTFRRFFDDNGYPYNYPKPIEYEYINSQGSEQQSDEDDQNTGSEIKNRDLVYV
Description: as §1

PIP4K2B = PIP4K2B (Homo sapiens, UniProt P78356); conditions: MOLM-13; 100 nM, 2 hours; ATP; read-out: Inhibition vs DMSO
Description: as §1

BRAF = BRAF (Homo sapiens, UniProt P15056); conditions: MOLM-13; 100 nM, 2 hours; Lys2; read-out: Inhibition vs DMSO
Sequence of BRAF (P15056 whole entry): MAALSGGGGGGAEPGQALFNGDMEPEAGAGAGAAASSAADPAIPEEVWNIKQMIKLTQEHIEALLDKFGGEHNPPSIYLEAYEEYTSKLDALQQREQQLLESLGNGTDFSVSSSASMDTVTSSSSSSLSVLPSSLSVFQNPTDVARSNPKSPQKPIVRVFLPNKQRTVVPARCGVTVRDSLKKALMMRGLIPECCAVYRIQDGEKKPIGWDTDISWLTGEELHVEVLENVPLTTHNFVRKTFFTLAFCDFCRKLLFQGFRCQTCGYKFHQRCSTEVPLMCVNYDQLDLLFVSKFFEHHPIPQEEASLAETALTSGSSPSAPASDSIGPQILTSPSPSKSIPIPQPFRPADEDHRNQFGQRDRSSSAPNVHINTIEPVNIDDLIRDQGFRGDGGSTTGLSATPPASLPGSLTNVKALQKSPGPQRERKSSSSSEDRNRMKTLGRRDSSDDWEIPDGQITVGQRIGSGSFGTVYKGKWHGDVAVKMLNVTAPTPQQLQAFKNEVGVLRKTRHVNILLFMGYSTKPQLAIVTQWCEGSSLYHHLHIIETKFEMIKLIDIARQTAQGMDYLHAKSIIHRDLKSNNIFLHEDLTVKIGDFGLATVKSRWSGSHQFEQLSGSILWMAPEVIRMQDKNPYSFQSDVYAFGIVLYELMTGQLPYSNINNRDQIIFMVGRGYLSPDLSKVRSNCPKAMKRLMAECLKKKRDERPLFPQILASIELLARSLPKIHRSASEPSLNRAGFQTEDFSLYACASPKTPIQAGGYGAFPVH
Description: as §1

CaMK1d = CaMK1d (Homo sapiens, UniProt Q8IU85); conditions: MOLM-13; 100 nM, 2 hours; Lys1; read-out: Inhibition vs DMSO
Sequence of CaMK1d (Q8IU85 whole entry): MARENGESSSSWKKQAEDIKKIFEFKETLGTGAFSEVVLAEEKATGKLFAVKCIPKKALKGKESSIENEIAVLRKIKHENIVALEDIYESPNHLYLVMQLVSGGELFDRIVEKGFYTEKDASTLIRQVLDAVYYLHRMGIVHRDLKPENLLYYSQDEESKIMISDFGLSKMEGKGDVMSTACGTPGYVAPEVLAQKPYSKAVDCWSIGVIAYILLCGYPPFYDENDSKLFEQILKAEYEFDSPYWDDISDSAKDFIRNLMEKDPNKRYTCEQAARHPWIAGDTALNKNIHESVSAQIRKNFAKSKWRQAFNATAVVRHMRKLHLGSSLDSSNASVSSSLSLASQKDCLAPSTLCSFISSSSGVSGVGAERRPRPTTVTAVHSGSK
Description: as §1

PCTAIRE1 = PCTAIRE1 (Homo sapiens, UniProt Q00536); conditions: MOLM-13; 100 nM, 2 hours; Lys1; read-out: Inhibition vs DMSO
Description: as §1

GCN2 domain2 = biological target: T4, GCN2 domain2 (Homo sapiens, UniProt Q9P2K8); conditions: MOLM-13, 2 h, 100 nM
T4 construct: GCN2 domain2
T4 sequence (Q9P2K8 whole entry, the tested form may be a part): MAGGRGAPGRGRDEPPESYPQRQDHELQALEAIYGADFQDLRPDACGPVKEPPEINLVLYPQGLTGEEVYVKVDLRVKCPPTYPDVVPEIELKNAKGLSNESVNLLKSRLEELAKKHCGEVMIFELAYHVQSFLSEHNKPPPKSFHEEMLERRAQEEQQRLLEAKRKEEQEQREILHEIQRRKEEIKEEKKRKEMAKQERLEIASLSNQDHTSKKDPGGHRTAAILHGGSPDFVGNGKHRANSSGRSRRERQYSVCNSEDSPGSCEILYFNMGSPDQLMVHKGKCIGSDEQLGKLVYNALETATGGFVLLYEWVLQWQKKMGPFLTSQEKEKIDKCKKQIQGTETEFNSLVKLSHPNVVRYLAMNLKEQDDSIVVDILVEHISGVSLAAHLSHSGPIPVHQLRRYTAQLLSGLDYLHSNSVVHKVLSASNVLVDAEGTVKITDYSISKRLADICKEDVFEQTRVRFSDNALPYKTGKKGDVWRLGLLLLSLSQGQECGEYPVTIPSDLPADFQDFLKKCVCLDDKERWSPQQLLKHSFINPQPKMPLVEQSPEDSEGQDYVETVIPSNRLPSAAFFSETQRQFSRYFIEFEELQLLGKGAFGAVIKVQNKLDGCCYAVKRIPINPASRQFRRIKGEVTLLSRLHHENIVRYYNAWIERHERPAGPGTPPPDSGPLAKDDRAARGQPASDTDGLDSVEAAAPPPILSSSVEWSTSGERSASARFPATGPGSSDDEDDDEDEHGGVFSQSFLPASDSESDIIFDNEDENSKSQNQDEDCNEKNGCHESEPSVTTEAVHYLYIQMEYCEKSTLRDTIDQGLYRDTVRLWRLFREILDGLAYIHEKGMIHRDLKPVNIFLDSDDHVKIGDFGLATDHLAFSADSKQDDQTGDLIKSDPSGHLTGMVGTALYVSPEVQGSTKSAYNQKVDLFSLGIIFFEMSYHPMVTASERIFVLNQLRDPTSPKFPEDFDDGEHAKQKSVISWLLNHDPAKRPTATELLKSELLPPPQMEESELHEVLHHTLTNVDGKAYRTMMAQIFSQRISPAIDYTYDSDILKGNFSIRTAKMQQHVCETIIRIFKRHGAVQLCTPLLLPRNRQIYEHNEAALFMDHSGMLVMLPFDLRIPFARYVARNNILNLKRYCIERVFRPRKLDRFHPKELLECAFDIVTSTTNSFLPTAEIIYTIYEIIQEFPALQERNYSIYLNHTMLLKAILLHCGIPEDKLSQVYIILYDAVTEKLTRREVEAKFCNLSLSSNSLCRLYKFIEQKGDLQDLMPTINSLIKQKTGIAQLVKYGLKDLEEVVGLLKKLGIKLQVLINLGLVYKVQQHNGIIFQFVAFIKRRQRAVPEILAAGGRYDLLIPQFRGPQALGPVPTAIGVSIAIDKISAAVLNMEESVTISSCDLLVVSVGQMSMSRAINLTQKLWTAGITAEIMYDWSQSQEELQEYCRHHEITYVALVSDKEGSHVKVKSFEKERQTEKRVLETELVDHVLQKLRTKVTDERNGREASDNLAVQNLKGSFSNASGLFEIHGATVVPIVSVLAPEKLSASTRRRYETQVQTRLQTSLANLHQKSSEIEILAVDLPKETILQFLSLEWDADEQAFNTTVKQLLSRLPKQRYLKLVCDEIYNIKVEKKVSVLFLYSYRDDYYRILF
Description: as §1

LKB1 = LKB1 (Homo sapiens, UniProt Q15831); conditions: MOLM-13; 100 nM, 2 hours; Lys2; read-out: Inhibition vs DMSO
Description: as §1

[1] = Lys1, read-out: Inhibition vs DMSO
[2] = Lys2, read-out: Inhibition vs DMSO

Sequence of BTK (Q06187 whole entry): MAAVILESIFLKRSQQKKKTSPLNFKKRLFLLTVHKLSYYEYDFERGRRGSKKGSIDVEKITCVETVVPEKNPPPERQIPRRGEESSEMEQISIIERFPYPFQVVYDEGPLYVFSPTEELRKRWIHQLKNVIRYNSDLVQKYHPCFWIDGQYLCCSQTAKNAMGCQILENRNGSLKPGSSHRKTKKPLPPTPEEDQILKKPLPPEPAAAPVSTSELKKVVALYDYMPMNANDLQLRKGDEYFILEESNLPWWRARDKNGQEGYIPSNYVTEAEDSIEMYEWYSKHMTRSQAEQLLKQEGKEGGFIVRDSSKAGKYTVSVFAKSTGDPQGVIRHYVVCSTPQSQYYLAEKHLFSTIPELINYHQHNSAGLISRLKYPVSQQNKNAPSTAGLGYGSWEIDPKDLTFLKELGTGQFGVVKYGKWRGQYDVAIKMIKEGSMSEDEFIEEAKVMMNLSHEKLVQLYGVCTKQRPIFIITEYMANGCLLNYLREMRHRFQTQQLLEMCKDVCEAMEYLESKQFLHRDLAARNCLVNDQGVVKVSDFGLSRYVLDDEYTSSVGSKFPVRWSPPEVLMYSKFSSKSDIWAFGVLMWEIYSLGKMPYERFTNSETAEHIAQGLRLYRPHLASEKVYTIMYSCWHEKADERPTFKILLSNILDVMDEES

CN1CCN(Cc2ccc(Nc3ncc(Cl)c(Nc4ccccc4S(=O)(=O)N(C)C)n3)cc2)CC1 [TP-0903]
Inhibition vs DMSO (BTK): 57.0% | inhibition at 0.1 µM (MAP2K5): -1.6% | inhibition at 0.1 µM (PAK2; [1]): -46.5% | inhibition at 0.1 µM (PAK2; Other, read-out: Inhibition vs DMSO): -26.6% | inhibition at 0.1 µM (MSK2 domain1; [1]): 13.3% | inhibition at 0.1 µM (MSK2 domain1; [2]): 26.8% | inhibition at 0.1 µM (PIP4K2C; TLVIKEVSSEDIADMHSNLSNYHQYIVK): -26% | inhibition at 0.1 µM (PIP4K2C; VKELPTLKDMDFLNK): -26.5% | inhibition at 0.1 µM (ARAF): -2.9% | inhibition at 0.1 µM (CDC2; [1]): 2.5% | inhibition at 0.1 µM (CDC2; [2]): 0.8% | inhibition at 0.1 µM (CDC2; Protein Kinase Domain, read-out: Inhibition vs DMSO): -40.6% | inhibition at 0.1 µM (p38b): -5% | inhibition at 0.1 µM (GSK3B): -11.3% | inhibition at 0.1 µM (LATS1; [1]): 6.7% | inhibition at 0.1 µM (LATS1; [2]): -12.4% | inhibition at 0.1 µM (PIP4K2B): -16.2% | inhibition at 0.1 µM (BRAF): 16.8% | inhibition at 0.1 µM (CaMK1d): 23.2% | inhibition at 0.1 µM (PCTAIRE1): 69.6% | inhibition at 0.1 µM (GCN2 domain2; [1]): -22.2% | inhibition at 0.1 µM (GCN2 domain2; [2]): -33.5% | inhibition at 0.1 µM (LKB1): 18.2%

Source: PMC7714403 (JCI Insight, 2020)
